Results: patent publication US20050227956A1, “Control of mold growth on wood” (priority 2004, published 2005)
Read-outs that look alike come from different tables or passages of the source. Marks after values point to notes of the source that are not given here.

Tests used:
Assay in all cases: Six-well plate screening test
Type in all cases: cell-based
Aspergillus niger = test system: Aspergillus niger
Aureobasidium pullulans = conditions: for MIC: single moldicide or ACQ-C alone, incubation period 14 days
[1] = test system: Cladosporium cladosporioides; conditions: for MIC: single moldicide or ACQ-C alone, incubation period 14 days
Penicillium funiculosum = conditions: for MIC: single moldicide or ACQ-C alone, incubation period 14 days
Alternaria alternata = conditions: for MIC: single moldicide or ACQ-C alone, incubation period 14 days
Trichoderma virens = conditions: for MIC: single moldicide or ACQ-C alone, incubation period 14 days
Stachybotrus charatrum = test system: Stachybotrus charatrum
[2] = 10 days of incubation at room temperature

Compound: CC1(c2ccc(Oc3ccccc3)cc2)OC(=O)N(Nc2ccccc2)C1=O (racemic) [FAMOXATE, (RS)-3-anilino-5-methyl-5-(4-phenoxyphenyl)-1,3-oxazolidine-2,4-dione]
- Minimum Inhibitory Concentrations (MIC) (Aspergillus niger; [2]): >100 mg/kg
- Minimum Inhibitory Concentrations (MIC) (Aureobasidium pullulans; [2]): >100 mg/kg
- Minimum Inhibitory Concentrations (MIC) [1, 2]: >100 mg/kg
- Minimum Inhibitory Concentrations (MIC) (Penicillium funiculosum; [2]): >100 mg/kg
- Minimum Inhibitory Concentrations (MIC) (Alternaria alternata; [2]): >100 mg/kg
- Minimum Inhibitory Concentrations (MIC) (Trichoderma virens; [2]): >100 mg/kg
- Minimum Inhibitory Concentrations (MIC) (Stachybotrus charatrum; [2]): >100 mg/kg

Compound: CC(Cc1ccc(C(C)(C)C)cc1)CN1C[C@@H](C)O[C@@H](C)C1 (mixture of isomers) [Fenpropimorph, (RS)-cis-4-[3-(4-tert-butylphenyl)-2-methylpropyl]-2,6-dimethylmorpholine]
- Minimum Inhibitory Concentrations (MIC) (Aspergillus niger; [2]): >100 mg/kg
- Minimum Inhibitory Concentrations (MIC) (Aureobasidium pullulans; [2]): 10 mg/kg
- Minimum Inhibitory Concentrations (MIC) [1, 2]: 50 mg/kg
- Minimum Inhibitory Concentrations (MIC) (Penicillium funiculosum; [2]): >100 mg/kg
- Minimum Inhibitory Concentrations (MIC) (Alternaria alternata; [2]): 50 mg/kg
- Minimum Inhibitory Concentrations (MIC) (Trichoderma virens; [2]): 10 mg/kg
- Minimum Inhibitory Concentrations (MIC) (Stachybotrus charatrum; [2]): 10 mg/kg

Compound: CC(C)(C)C(=O)C(Oc1ccc(Cl)cc1)n1cncn1 (racemic) [Tridimefon, (RS)-1-(4-chlorophenoxy)-3,3-dimethyl-1-(1H-1,2,4-triazol-1-yl)butan-2-one]
- Minimum Inhibitory Concentrations (MIC) (Aspergillus niger; [2]): >100 mg/kg
- Minimum Inhibitory Concentrations (MIC) (Aureobasidium pullulans; [2]): >100 mg/kg
- Minimum Inhibitory Concentrations (MIC) [1, 2]: >100 mg/kg
- Minimum Inhibitory Concentrations (MIC) (Penicillium funiculosum; [2]): >100 mg/kg
- Minimum Inhibitory Concentrations (MIC) (Alternaria alternata; [2]): >100 mg/kg
- Minimum Inhibitory Concentrations (MIC) (Trichoderma virens; [2]): >100 mg/kg
- Minimum Inhibitory Concentrations (MIC) (Stachybotrus charatrum; [2]): >100 mg/kg

Compound: CO/C=C(/C(=O)OC)c1ccccc1Oc1cc(Oc2ccccc2C#N)ncn1 [Azoxystrobin, methyl (E)-2-{2-[6-(2-cyanophenoxy)pyrimidin-4-yloxy]phenyl}-3-methoxyacrylate]
- Minimum Inhibitory Concentrations (MIC) (Aspergillus niger; [2]): >100 mg/kg
- Minimum Inhibitory Concentrations (MIC) (Aureobasidium pullulans; [2]): >100 mg/kg
- Minimum Inhibitory Concentrations (MIC) [1, 2]: >100 mg/kg
- Minimum Inhibitory Concentrations (MIC) (Penicillium funiculosum; [2]): >100 mg/kg
- Minimum Inhibitory Concentrations (MIC) (Alternaria alternata; [2]): >100 mg/kg
- Minimum Inhibitory Concentrations (MIC) (Trichoderma virens; [2]): >100 mg/kg
- Minimum Inhibitory Concentrations (MIC) (Stachybotrus charatrum; [2]): 25 mg/kg

Compound: CC(C)(C)C(O)C(Oc1ccc(Cl)cc1)n1cncn1 (stereo not drawn) [BAYTAN, (1RS,2RS; 1RS,2SR)-1-(4-chlorophenoxy)-3,3-dimethyl-1-(1H-1,2,4-triazol-1-yl)butan-2-ol]
- Minimum Inhibitory Concentrations (MIC) (Aspergillus niger; [2]): >100 mg/kg
- Minimum Inhibitory Concentrations (MIC) (Aureobasidium pullulans; [2]): 50 mg/kg
- Minimum Inhibitory Concentrations (MIC) [1, 2]: 50 mg/kg
- Minimum Inhibitory Concentrations (MIC) (Penicillium funiculosum; [2]): >100 mg/kg
- Minimum Inhibitory Concentrations (MIC) (Alternaria alternata; [2]): >100 mg/kg
- Minimum Inhibitory Concentrations (MIC) (Trichoderma virens; [2]): >100 mg/kg
- Minimum Inhibitory Concentrations (MIC) (Stachybotrus charatrum; [2]): >100 mg/kg

Compound: CCCCNC(=O)n1c(NC(=O)OC)nc2ccccc21 [Benomyl, methyl 1-(butylcarbamoyl)benzimidazol-2-ylcarbamate]
- Minimum Inhibitory Concentrations (MIC) (Aspergillus niger; [2]): 10 mg/kg
- Minimum Inhibitory Concentrations (MIC) (Aureobasidium pullulans; [2]): 100 mg/kg
- Minimum Inhibitory Concentrations (MIC) [1, 2]: 1^a mg/kg
- Minimum Inhibitory Concentrations (MIC) (Penicillium funiculosum; [2]): 1 mg/kg
- Minimum Inhibitory Concentrations (MIC) (Alternaria alternata; [2]): >100 mg/kg
- Minimum Inhibitory Concentrations (MIC) (Trichoderma virens; [2]): 1 mg/kg

Compound: COC(=O)Nc1nc2ccccc2[nH]1 [Carbendazim, methyl benzimidazol-2-ylcarbamate]
- Minimum Inhibitory Concentrations (MIC) (Aspergillus niger; [2]): 5 mg/kg
- Minimum Inhibitory Concentrations (MIC) (Aureobasidium pullulans; [2]): 0.1 mg/kg
- Minimum Inhibitory Concentrations (MIC) [1, 2]: 1^a mg/kg
- Minimum Inhibitory Concentrations (MIC) (Penicillium funiculosum; [2]): 1 mg/kg
- Minimum Inhibitory Concentrations (MIC) (Alternaria alternata; [2]): >100 mg/kg
- Minimum Inhibitory Concentrations (MIC) (Trichoderma virens; [2]): 1 mg/kg

Compound: CCNC(=O)NC(=O)C(C#N)=NOC [Cymoxinil, 1-(2-cyano-2-methoxyiminoacetyl)-3-ethylurea]
- Minimum Inhibitory Concentrations (MIC) (Aspergillus niger; [2]): 10 mg/kg
- MIC (Aspergillus niger; single moldicide or ACQ-C alone, incubation period 14 days): >100 mg/kg
- Minimum Inhibitory Concentrations (MIC) (Aureobasidium pullulans; [2]): >100 mg/kg
- MIC (Aureobasidium pullulans): >100 mg/kg
- Minimum Inhibitory Concentrations (MIC) [1, 2]: >100 mg/kg
- MIC [1]: >100 mg/kg
- Minimum Inhibitory Concentrations (MIC) (Penicillium funiculosum; [2]): >100 mg/kg
- MIC (Penicillium funiculosum): >100 mg/kg
- Minimum Inhibitory Concentrations (MIC) (Alternaria alternata; [2]): >100 mg/kg
- MIC (Alternaria alternata): >100 mg/kg
- Minimum Inhibitory Concentrations (MIC) (Trichoderma virens; [2]): >100 mg/kg
- MIC (Trichoderma virens): >100 mg/kg
- Minimum Inhibitory Concentrations (MIC) (Stachybotrus charatrum; [2]): >100 mg/kg

Compound: N#Cc1c[nH]cc1-c1cccc(Cl)c1Cl [Fenpiclonil, 4-(2,3-dichlorophenyl)-1H-pyrrole-3-carbonitrile]
- Minimum Inhibitory Concentrations (MIC) (Aspergillus niger; [2]): 1 mg/kg
- Minimum Inhibitory Concentrations (MIC) (Aureobasidium pullulans; [2]): 50 mg/kg
- Minimum Inhibitory Concentrations (MIC) [1, 2]: 10 mg/kg
- Minimum Inhibitory Concentrations (MIC) (Penicillium funiculosum; [2]): >100 mg/kg
- Minimum Inhibitory Concentrations (MIC) (Alternaria alternata; [2]): 50 mg/kg
- Minimum Inhibitory Concentrations (MIC) (Trichoderma virens; [2]): >100 mg/kg
- Minimum Inhibitory Concentrations (MIC) (Stachybotrus charatrum; [2]): 10 mg/kg

Compound: O=[N+]([O-])c1cc(C(F)(F)F)c(Cl)c([N+](=O)[O-])c1Nc1ncc(C(F)(F)F)cc1Cl [Fluazinam, 3-chloro-N-(3-chloro-5-trifluoromethyl-2-pyridyl)-alpha,alpha,alpha-trifluoro-2,6-dinitro-p-toluidine]
- Minimum Inhibitory Concentrations (MIC) (Aspergillus niger; [2]): 1 mg/kg
- Minimum Inhibitory Concentrations (MIC) (Aureobasidium pullulans; [2]): 1 mg/kg
- Minimum Inhibitory Concentrations (MIC) [1, 2]: 1 mg/kg
- Minimum Inhibitory Concentrations (MIC) (Penicillium funiculosum; [2]): 10 mg/kg
- Minimum Inhibitory Concentrations (MIC) (Alternaria alternata; [2]): 10 mg/kg
- Minimum Inhibitory Concentrations (MIC) (Trichoderma virens; [2]): >100 mg/kg

Compound: CC(C)NC(=O)N1CC(=O)N(c2cc(Cl)cc(Cl)c2)C1=O [Iprodione, 3-(3,5-dichlorophenyl)-N-isopropyl-2,4-dioxoimidazolidine-1-carboxamide]
- Minimum Inhibitory Concentrations (MIC) (Aspergillus niger; [2]): 10 mg/kg
- Minimum Inhibitory Concentrations (MIC) (Aureobasidium pullulans; [2]): >100 mg/kg
- Minimum Inhibitory Concentrations (MIC) [1, 2]: >101 mg/kg
- Minimum Inhibitory Concentrations (MIC) (Penicillium funiculosum; [2]): >102 mg/kg
- Minimum Inhibitory Concentrations (MIC) (Alternaria alternata; [2]): 100 mg/kg
- Minimum Inhibitory Concentrations (MIC) (Trichoderma virens; [2]): >100 mg/kg

Compound: S=C([S-])NCCNC(=S)[S-].[Na+].[Na+] [Nabam, disodium ethylenebis(dithiocarbamate)]
- Minimum Inhibitory Concentrations (MIC) (Aspergillus niger; [2]): 100 mg/kg
- Minimum Inhibitory Concentrations (MIC) (Aureobasidium pullulans; [2]): 100 mg/kg
- Minimum Inhibitory Concentrations (MIC) [1, 2]: 100 mg/kg
- Minimum Inhibitory Concentrations (MIC) (Penicillium funiculosum; [2]): >100 mg/kg
- Minimum Inhibitory Concentrations (MIC) (Alternaria alternata; [2]): >100 mg/kg
- Minimum Inhibitory Concentrations (MIC) (Trichoderma virens; [2]): 100 mg/kg
- Minimum Inhibitory Concentrations (MIC) (Stachybotrus charatrum; [2]): 100 mg/kg

Compound: N#CSCSc1nc2ccccc2s1 [TCMBT, 2-(thiocyanomethylthio)benzothiazole]
- Minimum Inhibitory Concentrations (MIC) (Aureobasidium pullulans; [2]): 300 mg/kg
- MIC (Aureobasidium pullulans): 300 mg/kg
- Minimum Inhibitory Concentrations (MIC) [1, 2]: 30 mg/kg
- MIC [1]: 30 mg/kg
- Minimum Inhibitory Concentrations (MIC) (Penicillium funiculosum; [2]): 30 mg/kg
- MIC (Penicillium funiculosum): 30 mg/kg
- Minimum Inhibitory Concentrations (MIC) (Alternaria alternata; [2]): 300 mg/kg
- MIC (Alternaria alternata): 300 mg/kg
- Minimum Inhibitory Concentrations (MIC) (Trichoderma virens; [2]): 3 mg/kg
- MIC (Trichoderma virens): 3 mg/kg
- Minimum Inhibitory Concentrations (MIC) (Stachybotrus charatrum; [2]): 3 mg/kg

Compound: bis(8-hydroxyquinolinium) sulfate [8-hydroxyquinoline]
- Minimum Inhibitory Concentrations (MIC) (Aspergillus niger): 100 mg/kg
- Minimum Inhibitory Concentrations (MIC) (Aureobasidium pullulans): 50 mg/kg
- Minimum Inhibitory Concentrations (MIC) [1]: 25 mg/kg
- Minimum Inhibitory Concentrations (MIC) (Penicillium funiculosum): 25 mg/kg
- Minimum Inhibitory Concentrations (MIC) (Alternaria alternata): 25 mg/kg
- Minimum Inhibitory Concentrations (MIC) (Trichoderma virens): 25 mg/kg
- Minimum Inhibitory Concentrations (MIC) (Stachybotrus charatrum): 10 mg/kg
